Where two headings read alike, the source gives them in different places. Bridge positions count the residues as written; N and C are the ends. Square brackets hold non-standard residues; d marks the D form. Peptide text beside a SMILES is read from it. R8 = C=CCCCCCC[C@@](C)(N)C(=O)O; S5 = C=CCCC[C@](C)(N)C(=O)O; Nle = CCCC[C@H](N)C(=O)O; Aib = CC(C)(N)C(=O)O
Experiments:
H1N1 California/07/2009 [1] = assay: microbe, parasite or virus in culture; type: cell-based, influenza A virus
H3N2 Perth/16/2009 [2] = assay: microbe, parasite or virus in culture; type: cell-based, influenza A virus
H1N1 California/07/2009 [3] = assay: microbe, parasite or virus in culture; type: cell-based, influenza A virus; remark: listed apart in the source
H3N2 Perth/16/2009 [4] = assay: microbe, parasite or virus in culture; type: cell-based, influenza A virus; remark: listed apart in the source
[5] = test system: H1N1 A/Solomon Island/03/2006; type: cell-based, influenza A virus; conditions: read-out: EC50
[6] = test system: H5N1 A/Hong Kong/213/2003; assay: microbe, parasite or virus in culture; type: cell-based, influenza A virus; conditions: read-out: EC50
H7N9 A/Anhui/1/2013 = assay: microbe, parasite or virus in culture; type: cell-based, influenza A virus; conditions: read-out: EC50
[7] = test system: influenza virus, various viral strains; assay: organism not typed; type: cell-based; conditions: read-out: EC50
in vitro = conditions: dog
[8] = Cytopathic effect/toxicity (Visual), MDCK cells, read-out: EC50 (μM) H1N1 California/07/2009
[9] = Influenza A H1N1 California/07/2009, Drug Assay Visual, read-out: EC50
[10] = Cytopathic effect/toxicity (Visual), MDCK cells, read-out: EC50 (μM) H3N2 Perth/16/2009
[11] = Influenza A H3N2 Perth/16/2006 (so in the source), Drug Assay Visual, read-out: EC50
[12] = Cytopathic effect/toxicity (Neutral red), MDCK cells, read-out: EC50 (μM) H1N1 California/07/2009
[13] = Influenza A H1N1 California/07/2009, Drug Assay Neutral Red, read-out: EC50
[14] = Cytopathic effect/toxicity (Neutral red), MDCK cells, read-out: EC50 (μM) H3N2 Perth/16/2009
[15] = Influenza A H3N2 Perth/16/2006 (so in the source), Drug Assay Neutral Red, read-out: EC50
[16] = CC50 (μM) H1N1 California/07/2009, Cell cytotoxicity (CC), run with H1N1 California/07/2009
[17] = CC50 (μM) H3N2 Perth/16/2009, Cell cytotoxicity (CC), run with H3N2 Perth/16/2009
[18] = CC50, run with Influenza A H1N1 A/Solomon Is./3/2006-M, Neutral Red
[19] = CC50, run with Influenza A H1N1 A/Solomon Is./3/2006-M, Visual
[20] = CC50, run with Influenza A H1N1 California/07/20/09 (so in the source), later run, Neutral Red
[21] = CC50, run with Influenza A H1N1 California/07/20/09 (so in the source), Visual/Neutral Red
[22] = CC50, run with Influenza A H1N1 California/07/2009, Neutral Red
[23] = CC50, run with Influenza A H1N1 California/07/2009, Visual
[24] = CC50, run with Influenza A H3N2 Perth/16/2006 (so in the source), Neutral Red
[25] = CC50, run with Influenza A H3N2 Perth/16/2006 (so in the source), Visual
[26] = CC50, run with Influenza A H3N2 Perth/16/2009, last run, Neutral Red
[27] = CC50, run with Influenza A H3N2 Perth/16/2009, Visual/Neutral Red
[28] = read-out: EC50 (μM) H1N1 California/07/2009
[29] = read-out: EC50 (μM) H3N2 Perth/16/2009

| Structure (SMILES) | EC50 (H1N1 California/07/2009 [1]; [8]) | EC50 (H1N1 California/07/2009 [1]; [9]) | EC50 (H3N2 Perth/16/2009 [2]; [10]) | EC50 (H3N2 Perth/16/2009 [2]; [11]) | EC50 (H1N1 California/07/2009 [3]; [12]) | EC50 (H1N1 California/07/2009 [3]; [13]) | EC50 (H3N2 Perth/16/2009 [4]; [14]) | EC50 (H3N2 Perth/16/2009 [4]; [15]) | EC50 [6] | EC50 (H7N9 A/Anhui/1/2013) | CC50 (in vitro; CC50) | CC50 (in vitro; [16]) | CC50 (in vitro; [17]) | CC50 (in vitro; [18]) | CC50 (in vitro; [19]) | CC50 (in vitro; [20]) | CC50 (in vitro; [22]) | CC50 (in vitro; [23]) | CC50 (in vitro; [24]) | CC50 (in vitro; [25]) | other results |
| --- | --- | --- | --- | --- | --- | --- | --- | --- | --- | --- | --- | --- | --- | --- | --- | --- | --- | --- | --- | --- | --- |
| CCCC[C@H](NC(C)=O)C(=O)N[C@@H](CC(=O)O)C(=O)N[C@H](C(=O)N[C@@H](CC(N)=O)C(=O)N[C@@]1(C)CCCC=CCCC[C@@](C)(C(=O)N[C@@H](CC(C)C)C(=O)N[C@@H](C)C(=O)N[C@H](C(=O)N[C@@H](CCC(N)=O)C(=O)NC(C)(C)C(=O)N[C@@H](C)C(=O)N[C@@H](C)C(=O)N[C@@H](C)C(N)=O)C(C)C)NC(=O)[C@H](CC(C)C)NC(=O)[C@H](CC(C)C)NC(=O)[C@H]([C@@H](C)O)NC1=O)C(C)C [SP-21] (Ac-[Nle]DVN[S5]TLL[S5]LAVQ[Aib]AAA-NH2; staple 5-9) | < 1.5 µM | 1.3 µM | < 1.5 µM | 0.54 µM | 1.5 to 10 µM | 4.6 µM | 1.5 to 10 µM | 2.1 µM | 39 µM | 17 µM | > 50 µM | > 100 µM | > 100 µM | > 100 µM | > 100 µM | > 100 µM | > 100 µM | > 100 µM | > 100 µM | > 100 µM | EC50 (H1N1 California/07/2009 [3]; Influenza A H1N1 California/07/20/09 (so in the source), later run, Drug Assay Neutral Red, read-out: EC50): 21 µM; EC90 (H1N1 California/07/2009 [3]; Influenza A H1N1 California/07/20/09 (so in the source), Drug Assay Visual/Neutral Red): 9.6 µM; EC50 (H3N2 Perth/16/2009 [4]; Influenza A H3N2 Perth/16/2009, last run, Drug Assay Neutral Red, read-out: EC50): 4.8 µM; EC90 (H3N2 Perth/16/2009 [4]; Influenza A H3N2 Perth/16/2009, Drug Assay Visual/Neutral Red): 8 µM; EC50 ([5]; Influenza A H1N1 A/Solomon Is./3/2006-M, Drug Assay Neutral Red): 5.3 µM; EC50 ([7]; Influenza A H1N1 A/Solomon Is./3/2006-M, Drug Assay Visual): 4.8 µM; CC50 (in vitro; [21]): > 100 µM; CC50 (in vitro; [26]): > 100 µM; CC50 (in vitro; [27]): > 100 µM |
| CCCC[C@H](NC(C)=O)C(=O)N[C@@H](CC(=O)O)C(=O)N[C@H](C(=O)N[C@@H](CC(N)=O)C(=O)N[C@@]1(C)CCCC=CCCC[C@@](C)(C(=O)N[C@@H](CC(C)C)C(=O)N[C@@H](C)C(=O)N[C@H](C(=O)N[C@@H](CCC(N)=O)C(=O)N[C@@H](C)C(=O)N[C@@H](C)C(=O)NC(C)(C)C(=O)N[C@@H](C)C(N)=O)C(C)C)NC(=O)[C@H](CC(C)C)NC(=O)[C@H](CC(C)C)NC(=O)[C@H]([C@@H](C)O)NC1=O)C(C)C [SP-22] (Ac-[Nle]DVN[S5]TLL[S5]LAVQAA[Aib]A-NH2; staple 5-9) |  |  |  |  |  |  |  |  | > 50 µM | 13 µM | > 50 µM | > 100 µM | > 100 µM | > 100 µM | > 100 µM | > 100 µM | > 100 µM | > 100 µM | > 100 µM | > 100 µM | EC50 (H1N1 California/07/2009 [1]; read-out: EC50): 1.8 µM; EC50 (H1N1 California/07/2009 [1]; [28]): 1.5 to 10 µM; EC50 (H3N2 Perth/16/2009 [2]; read-out: EC50): 0.54 µM; EC50 (H3N2 Perth/16/2009 [2]; [29]): < 1.5 µM; EC90 (H1N1 California/07/2009 [3]): 6.5 µM; EC50 (H1N1 California/07/2009 [3]; [28]): 1.5 to 10 µM; EC90 (H3N2 Perth/16/2009 [4]): 59 µM; EC50 (H3N2 Perth/16/2009 [4]; [29]): < 1.5 µM; EC50 [5]: 29 µM; EC50 [7]: 12 µM; CC50 (in vitro; [21]): > 100 µM; CC50 (in vitro; [26]): > 100 µM; CC50 (in vitro; [27]): > 100 µM |
| CCCC[C@H](NC(C)=O)C(=O)N[C@@H](CC(=O)O)C(=O)N[C@H](C(=O)N[C@@H](CC(N)=O)C(=O)N[C@]1(C)CCCCCCC=CCCC[C@@](C)(C(=O)N[C@@H](C)C(=O)N[C@@H](C)C(=O)N[C@@H](CCC(N)=O)C(=O)N[C@@H](C)C(=O)N[C@@H](C)C(N)=O)NC(=O)[C@H](C)NC(=O)[C@H](CC(C)C)NC(=O)[C@H](Cc2ccccc2)NC(=O)[C@H](CC(C)C)NC(=O)[C@H](CC(C)C)NC(=O)[C@H]([C@@H](C)O)NC1=O)C(C)C [SP-24] (Ac-[Nle]DVN[R8]TLLFLA[S5]AAQAA-NH2; staple 5-12) | 1.5 to 10 µM | 4.3 µM | 1.5 to 10 µM | 2.5 µM | 1.5 to 10 µM | 6.9 µM | 1.5 to 10 µM | 3.4 µM |  |  |  | > 100 µM | > 100 µM |  |  |  | > 100 µM | > 100 µM | > 100 µM | > 100 µM |  |

Source: patent US10059741B2 (priority 2015, dated 2018)
